Target: T1, Hhat (Homo sapiens, UniProt Q5VTY9)
T1 construct: Hhat-FLAG-His8 (C-terminal tags kept), stably expressed in HEK293a cells; DDM-solubilized membrane fraction P100(sol) enriched by Ni-NTA
Assay: microfluidic mobility shift assay, stopped
Type: biochemical

T1 sequence (Q5VTY9 whole entry): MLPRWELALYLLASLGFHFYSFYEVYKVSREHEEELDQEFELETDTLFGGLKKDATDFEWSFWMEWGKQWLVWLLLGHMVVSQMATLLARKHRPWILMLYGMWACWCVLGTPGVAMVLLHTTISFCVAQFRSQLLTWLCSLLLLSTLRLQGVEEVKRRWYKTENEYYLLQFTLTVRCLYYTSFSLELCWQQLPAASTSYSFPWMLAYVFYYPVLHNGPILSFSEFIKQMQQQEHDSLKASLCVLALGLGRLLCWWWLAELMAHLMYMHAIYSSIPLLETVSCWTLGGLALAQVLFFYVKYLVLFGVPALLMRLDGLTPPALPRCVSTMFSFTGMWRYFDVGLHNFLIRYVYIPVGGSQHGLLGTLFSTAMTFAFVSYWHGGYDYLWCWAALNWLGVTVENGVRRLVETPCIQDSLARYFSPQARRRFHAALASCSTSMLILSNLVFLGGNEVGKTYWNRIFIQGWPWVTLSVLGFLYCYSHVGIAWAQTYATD

IC50: 8.32 ± 3.69 µM
SMILES: CCC(C)CNCC(=O)N1CCc2sccc2C1c1cccc(C)c1 (stereo not shown) [RUSKI-101]

Reference: PMC5453399, “Microfluidic Mobility Shift Assay for Real-Time Analysis of Peptide N-Palmitoylation” (Slas Discovery, 2017)
